Measured values published in patent publication US20150167016A1, “Plants Tolerant to HPPD Inhibitor Herbicides” (Bayer CropScience AG, priority 2009, published 2015).
Several values for one entry are separate records, joined by “and”; a condition that tells them apart may be missing. Equal entries are not always repeated. Where two headings read alike, the source gives them in different places.

Experiments:
[1] = system: Picrophilus torridus HPPD "SEQ ID No. 5"; assay: biochemical; type: biochemical
[2] = target: (UniProt Q6KZ98); assay: biochemical; type: biochemical, Picrophilus torridus; details: read-out: pI50 (converted)
[3] = system: Wild type tobacco plants; assay: Glasshouse response to bicyclopyrone, injury classes; type: in vivo, Nicotiana tabacum; details: WT; 100 g Al/ha, 7 DAT
Description: (§1) Seeds of wild type tobacco plants and T1 tobacco plants carrying the gene from Picrophilus torridus FMP29e coding for HPPD were sown on MS media (Murashige and Skoog […]) supplemented with […] kanamycin. After 4 weeks, rooted green plantlets were transferred to soil and grown for 3 weeks in the glasshouse as described above then sprayed with a mixture containing bicyclopyrone (100 g Al/ha), ammonium sulfate and methyl ester raps oil. The plants were classified in two categories based on the phenotype developed in response to the herbicide seven days after the treatment. […] In this case, only plants containing at least one T-DNA were exposed to the herbicidal treatment.

[4] = system: T1 tobacco plants carrying FMP29e from Picrophilus torridus; assay: as above; type: in vivo, Nicotiana tabacum; details: 100 g Al/ha, 7 DAT
Description: as §1

[5] = system: Wild type tobacco plants; assay: Glasshouse spray trial, herbicidal damage; type: in vivo, Nicotiana tabacum; details: individual plants, 100% = same bleaching as wild type
Description: (§2) T0 Tobacco plants containing either the gene from Arabidopsis coding for HPPD or the gene FMP29e from Picrophilus torridus coding for FMP29 HPPD, mentioned above (Example3), were transferred to the glasshouse (28/20° C.), to develop further and produce seeds. Those seeds were harvested and put on soil (ED73 mixed with sand and osmocote Pro) to germinate in the glasshouse (28/20° C.). Three to four weeks later, plantlets were transferred to single pots containing the soil mentioned above. Two weeks later, plants of a size 4-6 cm diameter were sprayed with either • tembotrione at 100 gAl/ha prepared from a WP20 (wettable powder 20%) formulation supplemented with ammonium sulfate and methyl ester raps oil, or • isoxaflutole at 100 gAl/ha prepared from a WP20 formulation supplemented with ammonium sulfate and methyl ester raps oil, or • bicyclopyrone at 100 gAl/ha prepared from a WP20 formulation supplemented with ammonium sulfate and methyl ester raps oil, or • “blind formulation” made from a WP20 formulation without active ingredient (Al) supplemented with ammonium sulfate and methyl ester raps oil, and were then transferred to a growth chamber with adequate light conditions (20000 Lux).
(§3) Table 5: Wild type tobacco plants (A) and Ti populations of tobacco events containing alternatively, the expression cassettes described above having the promoter CaMV 35S, the sequence coding for OTP and the sequence coding for Arabidopsis HPPD (B) or the promoter CaMV35S, the sequence encoding OTP, and the sequence FMP29e coding for the HPPD FMP29 (C). Assessments of herbicidal damage at 7 days after application (DAT) per spray with 100 g Al/ha of tembotrione or isoxaflutole supplemented with ammonium sulfate and methyl ester raps oil. […] Plants belonging to categories (B) and (C) have not been selected for the presence of the respective transgene prior to the herbicide application.

[6] = system: T1 tobacco plants containing FMP29e (Picrophilus torridus HPPD FMP29); assay: Glasshouse spray trial, herbicidal damage; type: in vivo, Nicotiana tabacum; details: for tolerance of plants containing FMP29e gene: 7 DAT, 100 g Al/ha spray; for % injury, 7DAT, 100 g Al/ha: FMP29e, not selected for transgene
Description: as §2, §3

[7] = system: T1 tobacco plants containing Arabidopsis HPPD; assay: Glasshouse spray trial, herbicidal damage; type: in vivo, Nicotiana tabacum; details: not selected for transgene
Description: as §2, §3

[8] = system: tobacco calli containing HPPD SEQ ID No. 11 (Arabidopsis thaliana); assay: Rooting of calli on media with tembotrione; type: cell-based, Nicotiana tabacum; details: calli containing SEQ ID No. 11; 6 to 12 weeks
Description: (§4) The leaf disks were co-cultivated for 2 days with Agrobacterium tumefaciens cells containing either the binary vector FMP29ebv or AtHPPDbv. Then the leaf disks were transferred to a media allowing the regeneration of shoots for 6 weeks on MS (Musharige and Skoog, (1962), Physiol Plant 15(3): 473-497) media supplemented with BAP (1 mg/mL; Benzylaminopurine), carbenicillin (250 mg/mL), cefotaxine (250 mg/mL), kanamycin (75 mg/mL) and tembotrione (10^−6 M) Regenerated calli were transferred on media to induce the development of roots for 6 to 12 weeks: MS (½), supplemented with carbenicillin (250 mg/mL), cefotaxine (250 mg/mL), kanamycin (75 mg/mL), and tembotrione (10^−6 M).
(§5) Regenerated shoot calli from a cell transformed with a nucleic acid sequence encoding an HPPD comprising SEQ ID No. 11 (Arabidopsis thaliana) or SEQ ID No. 7 (Picrophilus torridus) were transferred to a media inducing root growth which media was further supplemented with the HPPD inhibitor tembotrione for 6 to 12 weeks.

[9] = system: tobacco calli containing HPPD SEQ ID No. 7 (Picrophilus torridus); assay: Rooting of calli on media with tembotrione; type: cell-based, Nicotiana tabacum; details: calli containing SEQ ID No. 7, 6 to 12 weeks
Description: as §4, §5

[10] = target: T1, Arabidopsis thaliana HPPD "SEQ ID No. 10" (Arabidopsis thaliana, UniProt P93836); assay: HPPD activity in presence of HPPD inhibitors (spectrophotometric assay of WO 2009/144079); type: biochemical
T1 construct: made in house; host or cells: E. coli K-12 BL21 (pQE30-AtHPPD)
T1 sequence (P93836 with tags, fused parts or gaps): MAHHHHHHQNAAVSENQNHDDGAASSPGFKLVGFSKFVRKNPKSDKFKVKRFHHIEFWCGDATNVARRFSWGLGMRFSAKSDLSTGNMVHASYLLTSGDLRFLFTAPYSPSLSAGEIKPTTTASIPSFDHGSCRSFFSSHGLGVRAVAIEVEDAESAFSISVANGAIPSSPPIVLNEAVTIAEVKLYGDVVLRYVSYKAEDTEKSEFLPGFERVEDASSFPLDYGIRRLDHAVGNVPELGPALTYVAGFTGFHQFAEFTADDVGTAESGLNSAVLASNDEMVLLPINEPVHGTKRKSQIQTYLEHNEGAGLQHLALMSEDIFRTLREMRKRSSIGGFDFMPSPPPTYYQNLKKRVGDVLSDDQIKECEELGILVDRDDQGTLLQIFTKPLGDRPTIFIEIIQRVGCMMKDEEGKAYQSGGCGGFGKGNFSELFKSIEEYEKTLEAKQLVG

[11] = SEQ ID No. 5, 5.0 × 10^−6M inhibitor
[12] = FMP29e line 121, plants with at least one T-DNA
[13] = SEQ ID No. 5, 2 mM HPP, 3 minutes incubation, >> = far higher than indicated, not calculable in tested range 2.5 × 10^−6 to 2.5 × 10^−4M

COCCOCc1nc(C(F)(F)F)ccc1C(=O)C1=C(O)C2CCC(C2)C1=O (centres unmarked) [Bicyclopyrone, 4-hydroxy-3-[[2-[(2-methoxyethoxy)methyl]-6-(trifluoromethyl)-3-pyridinyl]carbonyl]bicyclo[3.2.1]oct-3-en-2-one]
percentage of inhibition compared to the activity measured in absence of the inhibitor [1, 11]: 24%
IC50 [2]: 398 µM
% of tolerant plant [3]: 0%
Class I (number of plants, injury: 0-30%) [3]: 0
Class II (number of plants, injury: 31-100%) [3]: 12
tolerance of plants containing the HPPD FMP29 [4]: displayed tolerance
% of tolerant plant ([4]; FMP29e line 121): 2%
Class I (number of plants, injury: 0-30%) [4, 12]: 38
Class II (number of plants, injury: 31-100%) [4, 12]: 11

Cc1ccc(C(=O)COc2c(C(=O)c3ccc(Cl)c(C)c3Cl)c(C)nn2C)cc1 [Benzofenap]
percentage of inhibition compared to the activity measured in absence of the inhibitor [1, 11]: 44%
IC50 [2]: 15.8 µM

CS(=O)(=O)c1ccc(C(=O)C2C(=O)CCCC2=O)c(Cl)c1 [Sulcotrione, 2-[2-chloro-4-(methylsulfonyl)benzoyl]-1,3-cyclohexanedione]
pI50 [1]: >5.6
percentage of inhibition compared to the activity measured in absence of the inhibitor [1]: 92%

CS(=O)(=O)c1ccc(C(=O)C2C(=O)CCCC2=O)c(Cl)c1COCC(F)(F)F [Tembotrione, 2-[2-chloro-4-(methylsulfonyl)-3-[(2,2,2,-tri-fluoroethoxy)methyl]benzoyl]-1,3-cyclo-hexanedione]
pI50 [1, 13]: 5.5
percentage of inhibition compared to the activity measured in absence of the inhibitor [1, 11]: 58%
% injury, 7DAT, 100 g Al/ha [5]: 100%
tolerance of plants containing FMP29e gene [6]: far more tolerant
% injury, 7DAT, 100 g Al/ha ([6]; line 115, individual T1 plants): 30% and 40% and 50% (3×)
% injury, 7DAT, 100 g Al/ha ([6]; line 292, individual T1 plants): 20% (2×) and 30% and 40% (2×)
% injury, 7DAT, 100 g Al/ha ([7]; line 252, individual T1 plants): 30% and 40% (3×) and 50% and 60% (2×) and 70% (2×) and 75% (3×) and 80%
% injury, 7DAT, 100 g Al/ha ([7]; line 258, individual T1 plants): 100% (5×) and 30%
% injury, 7DAT, 100 g Al/ha ([7]; line 327, individual T1 plants): 10% and 20% (2×) and 40% and 50% and 0% and 70% (5×) and 80% (4×)
root growth on media supplemented with tembotrione [8]: On none of the events
root growth on media supplemented with tembotrione [9]: developed numerous and healthy roots
% Elongation & rooting on 10^−6M tembotrione ([9]; 10^−6M): 65%

CS(=O)(=O)c1cc(C(F)(F)F)ccc1C(=O)C(C#N)C(=O)C1CC1 (centres unmarked) [Diketonitrile, 2-cyano-3-cyclopropyl-1-(2-methylsulphonyl-4-trifluoromethylphenyl)-propane-1,3-dione]
percentage of inhibition compared to the activity measured in absence of the inhibitor [1, 11]: 26%
IC50 [2]: 12.6 µM

CS(=O)(=O)c1ccc(C(=O)C2C(=O)CCCC2=O)c([N+](=O)[O-])c1 [Mesotrione, 2-[4-(methylsulfonyl)-2-nitrobenzoyl]-1,3-cyclohexanedione]
percentage of inhibition compared to the activity measured in absence of the inhibitor [1]: 84%

Cc1nn(C)c(O)c1C(=O)c1ccc(C(F)(F)F)cc1S(C)(=O)=O [Pyrasulfotole]
pI50 [1, 13]: 4.0
percentage of inhibition compared to the activity measured in absence of the inhibitor [1, 11]: 7%
pI50 ([10]; 2 mM HPP, 3 minutes incubation, >> = far higher than indicated, not calculable in tested range 2.5 × 10^−6 to 2.5 × 10^−4M): 5.4
percentage of inhibition compared to the activity measured in absence of the inhibitor ([10]; 5.0 × 10^−6M inhibitor): 69%

CS(=O)(=O)c1ccc(C(=O)C2C(=O)CCCC2=O)c(Cl)c1COCC1CCCO1 (centres unmarked) [Tefuryltrione, 2-[2-chloro-4-(methylsulfonyl)-3-[[(tetrahydro-2-furanyl)methoxy]methyl]benzoyl]-1,3-cyclohexanedione]
percentage of inhibition compared to the activity measured in absence of the inhibitor [1, 11]: 87. %
IC50 [2]: 3.16 µM

CS(=O)(=O)c1cc(C(F)(F)F)ccc1C(=O)c1cnoc1C1CC1 [Isoxaflutole, (5-cyclopropyl-4-isoxazolyl)[2-(methylsulfonyl)-4-(trifluoromethyl)phenyl]methanone]
% injury, 7DAT, 100 g Al/ha [5]: 98% and 99% (2×) and 100% (4×)
tolerance of plants containing FMP29e gene [6]: far more tolerant
% injury, 7DAT, 100 g Al/ha ([6]; line 115, individual T1 plants): 0% and 2% and 5% and 10% and 15% and 30% (2×) and 40%
% injury, 7DAT, 100 g Al/ha ([6]; line 292, individual T1 plants): 20% and 30% and 40%
% injury, 7DAT, 100 g Al/ha ([7]; line 252, individual T1 plants): 30% and 70% and 95% and 98% (2×) and 99% (4×) and 100% (4×)
% injury, 7DAT, 100 g Al/ha ([7]; line 258, individual T1 plants): 100%
% injury, 7DAT, 100 g Al/ha ([7]; line 327, individual T1 plants): 10% and 20% and 60% (2×) and 70% and 80% and 95% and 98% and 99% and 100% (6×)
